Experimental data taken from patent US8546421B1, “Oncogenic-RAS-signal dependent lethal compounds” (The Trustees of Columbia University in the City of New York, priority 2007, dated 2013).
≈ marks a conversion by molar mass, not a printed value.

How the values were obtained:
[1] = system: VDAC3 in HT1080 cells; assay: Drug sensitivity after shRNA knockdown of VDAC3; assay type: cell-based, human; conditions: shRNAs targeting VDAC3, alamar blue
Procedure: (§1) On day one, 3×10^5 Calu-1 cells or 2×10^5 HT1080 cells were seeded in 10-cm dishes; on day 2, frozen virus stock was thawed at 37° C., hexadimethrine bromide (polybrene) (Sigma, cat.#H9268) was added to the virus solution at a final concentration of 8 μg/mL and growth media from cell culture was replaced with the virus/polybrene mixture. The culture was returned to the tissue culture incubator for 2 hours, with rocking of the dishes every 30 min in order to prevent drying. After 2 h, 10 mL growth medium was added, the culture was incubated for 2 days, and cells stably expressing shRNA were selected by adding puromycin (Sigma, cat.#P9620) at a final concentration of 1.5 μg/mL.
(§2) On the day of experiment, assay plates were prepared by seeding 3,000 HT1080, HT1080-pLKO, HT1080-TfR1 KD, Calu-1, Calu-1-pLKO, or Calu-1-509 cells per well in 36 μL of growth media to black, clear bottom 384-well plates. Also, assay plates were prepared by seeding 1,500 shRNA infected HT1080 or Calu-1 cells per well. Cells in assay plates were treated with each lethal compound in a 2-fold dilution series by transferring 4 μL solution from a 10× lethal plate of Erastin, Compound 3, Compound 27, or Compound 36. […] Percent growth inhibition (% GI) was calculated using fluorescence intensity values.

[2] = system: PARP-1 cleavage in BJ-TERT/LT/ST/RAS^V12 cells; assay: Western blot of PARP-1 cleavage upon compound treatment; assay type: cell-based, human; conditions: Western blot with anti-PARP-1 antibody
Procedure: 2×10^6 BJ-TERT/LT/ST/RAS^V12 cells were seeded in 10 cm dishes and treated with 1 μM staurosporine, 10 μg/mL erastin, 20 μg/mL Compound 3, and 1 μg/mL Compound 27 for 16 h. Both dying cells and live cells in each 10 cm dish were harvested and collected in the same 15 mL tubes by centrifuging cell suspension at 1,000 rpm for 5 min. Cell pellets were washed three times with PBS and cells were lysed in 200 μL of denaturing lysis buffer (50 mM HEPES KOH [pH 7.4], 40 mM NaCl, 2 mM EDTA, 1.5 mM Na3VO4, 50 mM NaF, 10 mM sodium pyrophosphate, 10 mM sodium β-glycerophosphate, 0.5% Triton X-100, and protease inhibitor tablet [Roche, cat.#11836170001]). Protein content was quantified using a Bio-Rad protein assay reagent (Bio-Rad, cat.#500-00006). Equal amounts of protein were resolved on SDS-polyacrylamide gels. The electrophoresed proteins were transblotted onto a PVDF membrane, blocked with 5% milk, and incubated with rabbit primary antibodies specific to: PARP (Santa Cruz, cat.#sc-7150), cleaved caspase-3 (Cell Signaling Technology, cat.#9661) overnight at 4° C. The membrane was then incubated in IRDye 800 goat anti-rabbit antibody (Li-cor Bioscience cat.#926-32211) at 1:3,000 dilutions for 45 min at room temperature. After washing off the unbound antibodies, membranes were scanned using the Odyssey™ Imaging System (Li-cor Bioscience).

[3] = system: HT1080-TfR1KD cells; assay: Drug sensitivity after shRNA knockdown of TfR1; assay type: cell-based, human; conditions: alamar blue
Procedure: as §1, §2

[4] = system: K-562; assay: NCI60 anti-cancer screening; conditions: for GI50 / CC50: Homo sapiens; for GI50: K562; for CC50: K562, read-out: LC 50%; for GI 100%: K-562, Leukemia
[5] = system: A498; assay: NCI60 anti-cancer screening; conditions: for GI 100% / GI50: A498; for GI 100%: Renal Cancer; for GI50 / CC50: Homo sapiens; for CC50: A498, read-out: LC 50%
[6] = system: HS 578T; assay: NCI60 anti-cancer screening; conditions: for GI 100%: HS 578T, Breast Cancer; for GI50 / CC50: Homo sapiens, Hs-578T; for CC50: read-out: LC 50%
[7] = system: Calu-1; assay: Alamar Blue assay, additional cell lines; assay type: cell-based, human; conditions: for Maximum Inhibition % / GI50: Calu-1, Non-small cell lung carcinoma, Alamar Blue
Description: (§3) The results of this additional testing are summarized in Tables 7-10 (no additional cell lines were identified as sensitive for Compound 3). […] The tumor type, cell line, maximum percentage inhibition, the concentration of compound required to inhibit cell growth by 50%, and RAS mutation (if any) are also summarized.

[8] = system: PaCa-2; assay: Alamar Blue assay, additional cell lines; assay type: cell-based, human; conditions: Pancreatic Cancer; for GI50: Homo sapiens
Description: as §3

[9] = system: A549/ATCC; assay: NCI60 anti-cancer screening; conditions: for GI 100%: A549/ATCC, Non-small cell lung carcinoma; for GI50 / CC50: Homo sapiens; for GI50: A549; for CC50: A549, read-out: LC 50%
[10] = system: EKVX; assay: NCI60 anti-cancer screening; conditions: for GI50 / CC50: Homo sapiens; for CC50: read-out: LC 50%; for GI 100%: Non-small cell lung carcinoma
[11] = system: NCI-H460; assay: NCI60 anti-cancer screening; conditions: for GI50 / CC50: Homo sapiens; for GI50 / GI 100%: NCI-H460; for CC50: NCI-H460, read-out: LC 50%; for GI 100%: Non-small cell lung carcinoma
[12] = system: HCC-2998; assay: NCI60 anti-cancer screening; conditions: for GI 100%: HCC-2998, Colon Cancer; for GI50 / CC50: Homo sapiens; for GI50: HCC 2998; for CC50: HCC 2998, read-out: LC 50%
[13] = system: HCT-116; assay: NCI60 anti-cancer screening; conditions: for GI 100% / GI50: HCT-116; for GI 100%: Colon Cancer; for GI50 / CC50: Homo sapiens; for CC50: HCT-116, read-out: LC 50%
[14] = system: SF-295; assay: NCI60 anti-cancer screening; conditions: for GI50 / CC50: Homo sapiens; for GI50 / GI 100%: SF-295; for CC50: SF-295, read-out: LC 50%; for GI 100%: CNS Cancer
[15] = system: IGROV1; assay: NCI60 anti-cancer screening; conditions: for GI50 / CC50: Homo sapiens; for GI50: IGROV-1; for CC50: IGROV-1, read-out: LC 50%; for GI 100%: IGROV1, Ovarian Cancer
[16] = system: SK-OV-3; assay: NCI60 anti-cancer screening; conditions: for GI50 / CC50: Homo sapiens; for GI50 / GI 100%: SK-OV-3; for CC50: SK-OV-3, read-out: LC 50%; for GI 100%: Ovarian Cancer
[17] = system: CAKI-1; assay: NCI60 anti-cancer screening; conditions: for GI 100% / GI50: CAKI-1; for GI 100%: Renal Cancer; for GI50 / CC50: Homo sapiens; for CC50: CAKI-1, read-out: LC 50%
[18] = system: PC-3; assay: NCI60 anti-cancer screening; conditions: for GI50 / CC50: Homo sapiens; for GI50 / GI 100%: PC-3; for CC50: PC-3, read-out: LC 50%; for GI 100%: Prostate Cancer

COCCOC(=O)C1=C(C)NC2=C(C(=O)CC(c3ccc(Cl)cc3)C2)C1c1ccccc1F (stereo not shown) [Compound 3]
effect of VDAC3 knockdown on compound-induced cell death [1]: suppressed | PARP-1 cleavage / type of cell death [2]: activate a non-apoptotic pathway | sensitivity of HT1080-TfR1KD cells compared with parental HT1080 [3]: decreased sensitivity | GI50 [4]: 9160 nM | CC50 [4]: > 10000 nM | GI 100% [4]: >10 µM | GI 100% [5]: >10 µM | GI50 [5]: 3390 nM | CC50 [5]: > 10000 nM | GI 100% [6]: >10 µM | GI50 [6]: 9310 nM | CC50 [6]: > 10000 nM

C=C1CCC2C(C)(C)CCC[C@]2(C)C1CC/C(C)=C\CC/C(C)=N/NC(N)=S (stereo partly shown) [Compound 36]
Maximum Inhibition % [7]: 100% | GI50 ([7]; Homo sapiens): 300 nM | GI50 [8]: 1500 nM | Maximum Inhibition % [8]: 100% | sensitivity of HT1080-TfR1KD cells compared with parental HT1080 [3]: decreased sensitivity | GI50 [4]: 267 nM | CC50 [4]: 3510 nM | GI 100% [4]: 1.08 µM | GI 100% [9]: 2.4 µM | GI50 [9]: 1110 nM | CC50 [9]: 5150 nM | GI50 [10]: 1240 nM | CC50 [10]: 5090 nM | GI 100% [10]: 2.51 µM | GI50 [11]: 626 nM | CC50 [11]: 5020 nM | GI 100% [11]: 2.02 µM | GI 100% [12]: 0.733 µM | GI50 [12]: 240 nM | CC50 [12]: 2680 nM | GI 100% [13]: 1.11 µM | GI50 [13]: 252 nM | CC50 [13]: 3320 nM | GI50 [14]: 1190 nM | CC50 [14]: 5330 nM | GI 100% [14]: 2.52 µM | GI50 [15]: 254 nM | CC50 [15]: 4170 nM | GI 100% [15]: 1.28 µM | GI50 [16]: 1260 nM | CC50 [16]: 5200 nM | GI 100% [16]: 2.56 µM | GI 100% [5]: 1.29 µM | GI50 [5]: 268 nM | CC50 [5]: 3850 nM | GI 100% [17]: 0.413 µM | GI50 [17]: 165 nM | CC50 [17]: 1080 nM | GI50 [18]: 548 nM | CC50 [18]: 4260 nM | GI 100% [18]: 1.82 µM | GI 100% [6]: 2.27 µM | GI50 [6]: 420 nM | CC50 [6]: > 10000 nM

CCc1c(O)c2c(c(O)c1O[C@H]1O[C@@H](COC(C)=O)[C@H](OC(C)=O)[C@@H](CC(C)=O)[C@@H]1OC(C)=O)C(=O)C(O[C@@H]1O[C@H](COC(C)=O)[C@@H](OC(C)=O)[C@H](OC(C)=O)[C@H]1OC(C)=O)=C(O[C@@H]1O[C@H](COC(C)=O)[C@@H](OC(C)=O)[C@H](OC(C)=O)[C@H]1OC(C)=O)C2=O [Compound 6]
Maximum Inhibition % [7]: 100% | GI50 ([7]; Homo sapiens): 2500 nM | GI50 [8]: 600 nM | Maximum Inhibition % [8]: 100% | GI50 [4]: 238 nM | CC50 [4]: > 10000 nM | GI 100% [13]: 1.32 µM | GI50 [13]: 376 nM | CC50 [13]: 3640 nM | GI50 [18]: 5070 nM | CC50 [18]: > 10000 nM | GI 100% [18]: >10 µM | GI 100% [6]: >10 µM | GI50 [6]: 3310 nM | CC50 [6]: > 10000 nM

COC(=O)c1ccc(C2c3[nH]c4ccccc4c3CC(C(=O)OC)N2C(=O)CCl)cc1 (stereo not shown) [Compound 27]
Maximum Inhibition % [7]: 100% | IC90 (in words) ([7]; Calu-1 cells, alamar blue): single-digit nanomolar range | GI50 ([7]; Homo sapiens): 1 nM | IC50 ([7]; Homo sapiens, Calu-1 cells, treated for 24 hour, alamar blue): 0.02 µg/mL (≈ 0.0454 µM) | GI50 [8]: 125 nM | Maximum Inhibition % [8]: 100% | effect of VDAC3 knockdown on compound-induced cell death [1]: not affected | PARP-1 cleavage / type of cell death [2]: activate a non-apoptotic pathway | GI 100% [9]: >10 µM | GI50 [9]: 2510 nM | CC50 [9]: > 10000 nM | GI50 [10]: 2310 nM | CC50 [10]: > 10000 nM | GI 100% [10]: 5.63 µM | GI50 [11]: 1430 nM | CC50 [11]: 6740 nM | GI 100% [11]: 3.11 µM | GI 100% [12]: 5.1 µM | GI50 [12]: 2010 nM | CC50 [12]: > 10000 nM | GI 100% [13]: 1.48 µM | GI50 [13]: 364 nM | CC50 [13]: 3840 nM | GI50 [14]: 1100 nM | CC50 [14]: 8060 nM | GI 100% [14]: 2.97 µM | GI50 [15]: 20.9 nM | CC50 [15]: 270 nM | GI 100% [15]: 0.0571 µM | GI50 [16]: 1680 nM | CC50 [16]: 6670 nM | GI 100% [16]: 3.34 µM | GI 100% [5]: 4.52 µM | GI50 [5]: 1830 nM | CC50 [5]: > 10000 nM | GI 100% [17]: 0.0381 µM | GI50 [17]: 21.1 nM | CC50 [17]: 68.7 nM | GI50 [18]: 231 nM | CC50 [18]: 3290 nM | GI 100% [18]: 1.08 µM | GI 100% [6]: 2.85 µM | GI50 [6]: 403 nM | CC50 [6]: > 10000 nM
